Laboratory results published in patent publication US9180183B2, “Phospholipid drug analogs” (Telormedix SA, priority 2010, dated 2015).
“Also recorded” adds a separate entry of the source.

What was measured:
[1] = target: CYP2C9 (Homo sapiens (Human), UniProt P11712); experiment: Fluorescent High Throughput P450 assay CYP2C9; type: in vitro ADME
Method: (§1) Inhibition of the P450 isoforms was measured in specific assays using specific substrates that become fluorescent upon CYP metabolism. Compounds, dissolved in ACN (acetonitrile) (CYP2E1, CYP2C8, CYP2B6, CYP3A5) or DMSO (all remaining isoforms), were tested in duplicate (n=2) in concentration-response curves (eight concentrations) in a 96-well plate containing incubation/NADPH regenerating buffer. Specific isoenzymes and substrates were added and incubated at 37° C. Reactions were terminated at different times, depending on the assays, and plates read on a Fluoroskan Ascent at the appropriate emission/excitation wavelengths. Concentration-response curves performed in duplicate for known inhibitors for each isoenzyme were tested in every assay as positive control.

[2] = target: CYP3A5 (Homo sapiens (Human), UniProt P20815); experiment: Fluorescent High Throughput P450 assay CYP3A5; type: in vitro ADME
Method: as §1

[3] = system: AY-27 rat bladder cancer cell-line; conditions: day 12
[4] = target: CYP3A4 (Homo sapiens (Human), UniProt P08684); experiment: Fluorescent High Throughput P450 assay CYP3A4; type: in vitro ADME
Sequence of CYP3A4 (P08684 whole entry, looked up): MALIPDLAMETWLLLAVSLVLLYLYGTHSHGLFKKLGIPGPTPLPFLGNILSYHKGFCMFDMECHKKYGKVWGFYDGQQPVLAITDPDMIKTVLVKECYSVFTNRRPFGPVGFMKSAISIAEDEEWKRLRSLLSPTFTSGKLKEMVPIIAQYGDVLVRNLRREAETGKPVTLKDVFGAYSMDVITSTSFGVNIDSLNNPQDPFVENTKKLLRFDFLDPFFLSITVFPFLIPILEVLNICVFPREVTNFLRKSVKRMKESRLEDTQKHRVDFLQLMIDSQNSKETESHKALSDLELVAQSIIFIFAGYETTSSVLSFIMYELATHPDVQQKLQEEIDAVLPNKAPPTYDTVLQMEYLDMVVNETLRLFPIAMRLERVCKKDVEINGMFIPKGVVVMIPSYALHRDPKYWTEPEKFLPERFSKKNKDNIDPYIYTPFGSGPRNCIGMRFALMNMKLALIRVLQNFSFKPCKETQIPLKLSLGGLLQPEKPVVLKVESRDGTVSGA
Method: as §1

[5] = Stability study of SC12 under storage conditions (HPLC); type: physicochemical
[6] = system: recombinant protein antigens from Plasmodium falciparum and Mycobacterium ulcerans; experiment: Pilot immunization study with adjuvanted protein antigens in mice; type: in vivo
Method: A pilot immunization study was conducted using Compound A and SC12 adjuvanted protein antigens. The immunization experiments were performed with two recombinant proteins expressed in E. coli. One antigen was derived from the malaria parasite Plasmodium falciparum and the other one from Mycobacterium ulcerans, which cause the ulcerative skin disease Buruli ulcer.

[7] = Heat stability of solid samples at 80° C. (HPLC); type: physicochemical; conditions: solid sample
Method: Solid samples of each compound were maintained at 80° C. and analyzed by HPLC.

[8] = system: AY-27 rat bladder cancer cell-line; conditions: in vivo
[9] = Intravenous pharmacokinetics in the mouse; conditions: IV bolus 1 mg/kg; for Plasma concentration Mean ± S.D.: LLOQ: 5 ng/ml
Method: An IV bolus was administered into the caudal vein at a dose of 1 mg/kg in 5 ml. The compound weight was 2.08/10.04 ml. 24 mice were studied. Sampling was obtained by exsanguination under anesthesia, at 5, 15, 30, 60, 240, and 480 minutes, and at 24 hours. […] Animals were sacrificed using ethyl ether at the conclusion of the experiment.
Sample preparation: In a Sirocco filter plate, 100 microliters of plasma were added to 300 microliters of ACN/MeOH spiked with 5 microliters of IS (IV298 10 micrograms per ml) plus 10 microliters of 5% H3PO4. The plate was shaken for 10 minutes at 80 rpm and then filtered under vacuum for 5 minutes.
Analytical method: LC/MS/MS: Premiere XE, Eluent: water (A) MeOH (B) plus 0.1% HCOOH gradient. 15% B to 100% B from 0.1 to 0.5, then isocratic 100% B up to 1.5 minutes, flow 0.8 ml/min; Column Acquity UPLC BEH C18 1.7 microm 2.1×50 mm, injection volume of 5 microliters in a T column at 50° C. ESI positive, MRM, Extractor 5V; Capillary 3.5 kV; T source 115° C.; T desolv. 450° C.
Data analysis: Non-compartmental analysis WinNonlin 5.1; linear trapezoidal, uniform weight.

[10] = system: PBMCs; experiment: IL-6 and TNF-alpha secretion in PBMCs (ELISA), Model 2; type: cell-based, human; conditions: three donors
[11] = system: Escherichia coli WP2 uvrA; experiment: Bacterial mutation assay, Escherichia coli; type: cell-based; conditions: absence or presence of S9 metabolism
Method: The five tester strains TA1535, TA1537, TA98, TA100 and WP2 uvrA were used. Experiments were performed both in the absence and presence of metabolic activation, using liver S9 fraction from rats pre-treated with phenobarbitone and betanaphthoflavone. SC12 was used as a solution in dimethylsulfoxide (DMSO).

[12] = target: CYP2E1 (Homo sapiens (Human), UniProt P05181); experiment: Fluorescent High Throughput P450 assay CYP2E1; type: in vitro ADME
Sequence of CYP2E1 (P05181 whole entry, looked up): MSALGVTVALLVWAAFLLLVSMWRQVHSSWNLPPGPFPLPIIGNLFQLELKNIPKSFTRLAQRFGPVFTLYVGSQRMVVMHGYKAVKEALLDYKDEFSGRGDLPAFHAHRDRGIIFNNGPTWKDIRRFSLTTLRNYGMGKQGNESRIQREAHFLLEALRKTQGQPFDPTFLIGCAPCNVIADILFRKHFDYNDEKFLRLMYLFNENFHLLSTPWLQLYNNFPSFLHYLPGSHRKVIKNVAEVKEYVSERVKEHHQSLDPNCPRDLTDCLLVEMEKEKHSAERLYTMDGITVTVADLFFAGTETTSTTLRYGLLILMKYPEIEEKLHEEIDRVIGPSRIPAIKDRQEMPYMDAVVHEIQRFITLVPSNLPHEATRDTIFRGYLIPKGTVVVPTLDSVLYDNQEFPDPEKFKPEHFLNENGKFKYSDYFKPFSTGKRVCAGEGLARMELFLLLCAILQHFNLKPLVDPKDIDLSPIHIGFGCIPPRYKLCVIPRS
Method: as §1

[13] = system: human whole blood; experiment: Cytokine secretion in human whole blood assay (ELISA); type: cell-based; conditions: for IL-12p40 levels: all donors
Method: Before drawing the blood, the compounds were added to 96 well round bottom plates in a 10× diluted sample at 20 ul. The compounds were diluted in RPMI media without serum but with antibiotics. Antibiotics were added at a 10× concentration. After drawing the blood, the whole blood sample was gently mixed to obtain a homogeneous sample, and 180 ul was added to each well.
All compounds were setup in concentrations at 0-0.01-0.03-0.1-0.5-2.0-10.0 micromolar as the final concentration. Vehicle control was DMSO control, where we used the highest concentration used for the compounds. After addition of blood, all plates were gently agitated at 37° C. and 5% CO2 until harvest.
Concentrations of cytokines were determined by ELISA from R&D Systems. The results were analyzed in Graph Pad Prism in order to prepare dose-response curves, and for determination of EC50 values. FACS analysis was made by using Becton-Dickinson FACSDiva software and subsequently illustrated in Graph Pad Prism.

[14] = Solubility in organic solvents; type: physicochemical; conditions: especially in ACN
[15] = solid, RT and light, t = 20 days
[16] = solid, external T and light, t = 20 days
[17] = solution in CHCl3, RT and light, t = 0
[18] = solution in CHCl3, RT and light, t = 20 days
[19] = whole blood, 6 hours incubation

Sequence of CYP2C9 (P11712 whole entry, looked up): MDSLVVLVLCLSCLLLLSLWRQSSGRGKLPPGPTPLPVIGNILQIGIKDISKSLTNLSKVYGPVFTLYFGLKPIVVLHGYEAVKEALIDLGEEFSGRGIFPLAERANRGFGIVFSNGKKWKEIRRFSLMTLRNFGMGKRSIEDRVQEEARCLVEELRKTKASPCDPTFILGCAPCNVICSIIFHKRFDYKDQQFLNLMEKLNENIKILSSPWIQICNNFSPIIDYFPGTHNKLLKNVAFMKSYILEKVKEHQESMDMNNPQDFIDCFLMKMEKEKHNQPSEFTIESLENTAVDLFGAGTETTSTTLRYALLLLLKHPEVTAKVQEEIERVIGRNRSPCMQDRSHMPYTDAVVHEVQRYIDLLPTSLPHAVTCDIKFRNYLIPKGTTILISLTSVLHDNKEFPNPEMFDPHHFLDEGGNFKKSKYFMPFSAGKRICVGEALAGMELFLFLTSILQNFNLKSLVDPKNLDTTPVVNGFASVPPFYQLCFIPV
Sequence of CYP3A5 (P20815 whole entry, looked up): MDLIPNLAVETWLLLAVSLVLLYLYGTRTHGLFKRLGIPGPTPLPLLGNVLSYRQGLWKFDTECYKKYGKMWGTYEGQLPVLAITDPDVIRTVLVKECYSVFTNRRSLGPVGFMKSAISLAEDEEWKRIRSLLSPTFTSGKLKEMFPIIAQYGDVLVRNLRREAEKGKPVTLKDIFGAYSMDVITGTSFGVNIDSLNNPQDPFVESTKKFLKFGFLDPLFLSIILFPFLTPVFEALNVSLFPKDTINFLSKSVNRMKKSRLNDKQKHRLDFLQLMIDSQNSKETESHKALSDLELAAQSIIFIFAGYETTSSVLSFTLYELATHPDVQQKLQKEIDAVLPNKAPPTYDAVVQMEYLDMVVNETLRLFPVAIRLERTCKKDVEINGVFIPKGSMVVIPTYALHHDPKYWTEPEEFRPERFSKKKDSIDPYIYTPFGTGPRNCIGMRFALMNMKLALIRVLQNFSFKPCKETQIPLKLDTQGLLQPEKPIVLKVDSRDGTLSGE

CCCCCCCCCCCC(=O)OCC(COP(=O)(O)OCCNC(=O)c1ccc(Cn2c(=O)[nH]c3c(N)nc(OCCOC)nc32)cc1)OC(=O)CCCCCCCCCCC (centres unmarked) [SC12]
inhibition of CYP2C9 (in words) [1]: weak inhibition
inhibition of CYP3A5 (in words) [2]: moderate inhibition
Range of weight of the rat bladders ([3]; 0.5 ml intravesical instillation (Imiquimod 0.1%, SC12 0.38%) on day 2 and 5): 0.0780-0.1422 grams
Tumor free (% of rats) ([3]; of 14 rats per group): 42.9%
Tumor free (number of rats) ([3]; of 14 rats per group): 6
pT2 Tumor (% of rats) ([3]; of 14 rats per group): 50.0%
pT2 Tumor (number of rats) ([3]; of 14 rats per group): 7
pTa Tumor (% of rats) ([3]; of 14 rats per group): 7.1%
pTa Tumor (number of rats) ([3]; of 14 rats per group): 1
inhibition of CYP3A4 (in words) [4]: moderate inhibition
HPLC % at RRT = 1 (main peak) [5, 15]: RRT = 1: 87.8%
HPLC % of impurity at RRT = 0.88 [5, 15]: RRT = 0.88: 6.2%
HPLC % of impurity at RRT = 1.21 [5, 15]: RRT = 1.21: 4.8%
HPLC % at RRT = 1 (main peak) [5, 16]: RRT = 1: 84.0%
HPLC % of impurity at RRT = 0.88 [5, 16]: RRT = 0.88: 6.6%
HPLC % of impurity at RRT = 1.21 [5, 16]: RRT = 1.21: 7.1%
HPLC % at RRT = 1 (main peak) [5, 17]: RRT = 1: 90.3%
HPLC % of impurity at RRT = 0.46 [5, 17]: RRT = 0.46: 5.7%
HPLC % of impurity at RRT = 1.21 [5, 17]: RRT = 1.21: 0.9%
HPLC % at RRT = 1 (main peak) [5, 18]: RRT = 1: 88.0%
HPLC % of impurity at RRT = 0.88 [5, 18]: RRT = 0.88: 6.2%
HPLC % of impurity at RRT = 1.21 [5, 18]: RRT = 1.21: 5.0%
local side effects ([6]; three s.c. immunizations with 10 nMol adjuvant): No local side effects
IgG responses against the target antigens ([6]; three s.c. immunizations, 20 micrograms antigen mixed with 10 nMol adjuvant, after the third immunization): developed IgG responses
HPLC purity ([7]; After 2 hrs at 80° C.): 90% HPLC
HPLC purity ([7]; After 22 hrs at 80° C.): 88% HPLC
HPLC purity ([7]; t = 0): 90% HPLC
signs of toxicity (in words) [8]: No signs of toxicity
adverse behavioral effects [9]: No adverse behavioral effects
Cl ([9]; plasma): 77.7 mL/min/kg
Clast ([9]; plasma): 6 ng/mL
MRT ([9]; plasma): 32 min
T ½ ([9]; plasma): 130 min
Tlast ([9]; plasma): 120 min
Tmax ([9]; plasma): 5 min
Vss ([9]; plasma): 2.5 L/kg
Plasma concentration Mean ± S.D. ([9]; 240 min): <LLOQ
Plasma concentration Mean ± S.D. ([9]; 480 min): <LLOQ
Plasma concentration Mean ± S.D. ([9]; 1440 min): <LLOQ
induction of IL-6 and TNF-alpha secretion (in words) [10]: most potent TLR7 agonists
toxicity to tester strains ([11]; toxicity test, 50.0-5000 micrograms/plate): No toxicity was observed
reverse mutation / revertant colonies ([11]; up to 5000 micrograms/plate): did not induce two-fold increases in the number of revertant colonies; also recorded: does not induce reverse mutation
inhibition of CYP2E1 (in words) [12]: moderate inhibition
induction of DC secreted cytokines (in words) ([13]; supernatant from whole blood cell assays): potent inducers
range of IL-6 secretion ([13]; whole blood, three donors): 4000 to 8000 pg/mL
ranges of IFN-alpha secreted ([13]; whole blood, three donors): 1000 to 2000 pg/mL
IL-10 production (in words) [13, 19]: no IL-10 production was seen
IL-12p40 levels [13, 19]: 8.000 to 12.000 pg/mL
IL-12p40 levels ([13]; whole blood, 24 hours incubation): 20.000 to 25.000 pg/mL
solubility [14]: low solubility
